The text below walks through data of ChEMBL document CHEMBL1136416, “Identification of a stable chymase inhibitor using a pharmacophore-Based database search” (Bioorg Med Chem Lett, 2003).

Values joined by “and” are separate entries in the source; they are usually repeats but may differ in a detail not shown here. Equal values may be shown once. A value given as a limit tells only on which side of the number the result lay.

A short description of series [1]: Percent compound remaining in human plasma after incubation for 60 min at 37 C. The settings on record: read-out: Stability. The series is classed as ADME, cell-free.
In series [2] the target is T1, Chymase (Homo sapiens) (UniProt P23946).
T1 sequence (whole entry): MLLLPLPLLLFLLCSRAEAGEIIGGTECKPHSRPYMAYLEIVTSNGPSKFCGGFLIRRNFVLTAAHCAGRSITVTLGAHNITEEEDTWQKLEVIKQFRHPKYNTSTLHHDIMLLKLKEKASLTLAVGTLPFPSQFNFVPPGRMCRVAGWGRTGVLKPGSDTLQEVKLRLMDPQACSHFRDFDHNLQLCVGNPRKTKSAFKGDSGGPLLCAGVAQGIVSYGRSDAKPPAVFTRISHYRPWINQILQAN
The series can be described thus: Inhibitory activity against serine protease chymase was determined at 1 uM.

The next series deals with T2, Chymase (Homo sapiens, UniProt P23946).
T2 sequence (P23946 whole entry): T1 sequence (whole entry)
The series can be described thus: Inhibitory concentration against serine protease chymase was determined.

Series [3] deals with T1, Chymase (Homo sapiens). Briefly: Inhibitory activity against serine protease chymase was determined.
Series [4] is described as follows: Percent remaining in human plasma after incubation for 60 min at 37 C. The following applies: read-out: Stability. The series is classed as ADME, cell-free.

`CCCS(=O)(=O)c1ccc(NS(=O)(=O)c2sc3ccc(Cl)cc3c2C)cc1`: the remaining at 1 h in series [1] came to 100%. The same molecule yielded an inhibition at Chymase (Homo sapiens) [2] of over 30%. Moreover, at Chymase, the IC50 is 0.909 µM.
Regarding `O=C1SC(Cc2ccc3ccccc3c2)C(=O)N1Cc1ccoc1` (centres undefined), the Inhibitory activity on Chymase (Homo sapiens) [3] turned out to be 273 µM.
In the case of `Cc1ccc(/C=C2\SC(=O)N(CSc3ccc4ccccc4c3)C2=O)o1`, the Inhibitory activity at Chymase (Homo sapiens) [3] was 141 µM.
At Chymase (Homo sapiens) [3], `O=C1S/C(=C\c2ccsc2)C(=O)N1C(=O)c1ccc2ccccc2c1` displayed an Inhibitory activity of 0.081 µM.
`COC(=O)C(c1ccc2ccccc2c1)N1C(=O)S/C(=C\c2ccc(C)o2)C1=O` (centres undefined) returned an Inhibitory activity at Chymase (Homo sapiens) [3] of 4.22 µM.
For `O=C1c2ccccc2C(=O)N1S(=O)(=O)c1ccc2ccccc2c1`, the Inhibitory activity at Chymase (Homo sapiens) [3] was 176 µM.
The same measure, in the same setting: as for `Cc1ccc(-c2nnc(NC(=O)c3ccc4ccccc4c3)s2)o1`, the figure is 87 µM; as for `O=C(Nc1nnc(SCc2nc3ccccc3s2)s1)c1ccc(Cl)cc1`, 27 µM.
At Chymase (Homo sapiens) [3], `Cc1ccc(/C=C2\SC(C)(C)N(C(=O)c3ccc4ccccc4c3)C2=O)o1` showed an Inhibitory activity of 8.91 µM.
The molecule `Clc1ccc(CNc2nnc(Sc3nc4ccccc4s3)s2)cc1` returned an Inhibitory activity on Chymase (Homo sapiens) [3] of 321 µM.
On Chymase (Homo sapiens) [3], `Cc1ccc(C(=O)Nc2nnc(SC(=O)c3ccc(C)cc3)s2)cc1` gave an Inhibitory activity of 48 µM.
In turn, `Cc1ccc(/C=C2\SCCN(C(=O)c3ccc4ccccc4c3)C2=O)o1` returned an Inhibitory activity on Chymase (Homo sapiens) [3] of 4.54 µM.
Turning to `O=C(Oc1ccc(Cl)cc1)c1cnc(C2COc3ccccc3O2)s1` (centres undefined), the remaining at 1 h in series [1] was 11.8%. The values for the inhibition against Chymase (Homo sapiens) [3] (concentration not given here) and on Chymase (Homo sapiens) [2] were 17.8% and over 30%, respectively.
Turning to `CSc1[nH]nc(NC(=O)c2ccc(Cl)cc2)c1S(=O)(=O)c1ccc(Cl)cc1`, the remaining at 1 h in series [4] worked out at 6.4%. Moreover, on Chymase (Homo sapiens) [2], the inhibition is 36.5% and > 30%.
With `Cc1ccc(/C=C2\SC(=O)N(CS(=O)(=O)c3ccc4ccccc4c3)C2=O)o1`, the Inhibitory activity at Chymase (Homo sapiens) [3] was found to be 24 µM.
On Chymase (Homo sapiens) [3], `Cc1ccc(C(=O)Nc2nnc(C(=O)c3ccccc3)s2)cc1` displayed an Inhibitory activity of 75 µM.
The same measure, in the same setting: the same measure for `O=C1ON(S(=O)(=O)c2ccc3ccccc3c2)C(=O)/C1=C/c1ccc(F)cc1`: 608 µM; for `O=C1S/C(=C/c2ccc(O)cc2)C(=O)N1S(=O)(=O)c1ccc2ccccc2c1`: 0.691 µM.
For the molecule `O=C(Nc1nnc(Sc2nc3ccccc3s2)s1)C(Cl)(Cl)Cl`, the Inhibitory activity at Chymase (Homo sapiens) [3] is 14 µM.
At Chymase (Homo sapiens) [3], `O=C(Nc1nnc(Sc2nc3ccccc3s2)s1)c1ccccc1` gave an Inhibitory activity of 1.34 µM.
`Cc1ccc(/C=C2\SC(=O)N(Cc3ccc4ccccc4c3)C2=O)o1` showed an Inhibitory activity on Chymase (Homo sapiens) [3] of 190 µM.
With `O=C(Nc1nnc(Sc2nc3ccccc3s2)s1)c1ccc(Cl)cc1`, the Inhibitory activity on Chymase (Homo sapiens) [3] was determined as 0.308 µM.
On the same count and under the same terms, as for `Cc1ccc(/C=C2\SC(=O)N(C(=O)c3ccc4ccccc4c3)C2=O)o1`, the figure is 0.097 µM.
`O=c1n(S(=O)(=O)c2ccc3ccccc3c2)c2ccccc2n1S(=O)(=O)c1ccc2ccccc2c1` displayed an Inhibitory activity on Chymase (Homo sapiens) [3] of 3.46 µM.
`Cc1ccc(C(=O)Sc2nnc(SC(=O)c3ccc(C)cc3)s2)cc1` gave an Inhibitory activity on Chymase (Homo sapiens) [3] of 3.24 µM.
Take `O=C1ON(C(=O)c2ccc3ccccc3c2)C(=O)/C1=C/c1ccc(O)c(O)c1`: the Inhibitory activity at Chymase (Homo sapiens) [3] was determined as 53 µM.
The same measure, in the same setting: as for `Cc1ccc(/C=C2\SC(=O)N(C(=O)c3cccc(-c4ccccc4)c3)C2=O)o1`, the figure is 0.683 µM; as for `O=C(Oc1ccccc1)N1C(=O)S/C(=C\c2ccco2)C1=O`, 3.6 µM.
`COC(=O)c1ccc(C(=O)n2cnc3cc4ccccc4cc3c2=O)cc1`: on Chymase (Homo sapiens) [3], the Inhibitory activity came out at 0.61 µM.

By inhibition is commonly meant the percentage by which the read-out fell short of the control. For orientation: IC50 means the midpoint of a concentration-inhibition curve.
